Test results published in patent US20160009752A1, “[…]-OXIMINO-AMINOALKYLETHERS AND PROCESS FOR PREPARATION THEREOF, USEFUL AS ANTIDIABETIC AND […] AGENTS” (COUNCIL OF SCIENTIFIC & INDUSTRIAL RESEARCH, priority 2013, published 2016).
Marks after values point to notes of the source that are not given here.

Columns and labels:
sucrose loaded rat = experiment: Sucrose loaded rat model (SLM), oral tolerance test; format: in vivo; design: % Antihyperglycemic activity SLM: concentration or dose not given beside the values; conditions: Table 2; sucrose loaded rat
Description: On the day of experiment blood glucose of all the overnight fasted animals was checked by Glucostrips (Roche) using Glucometer (ACCU-CHEK II; Roche Diagnostics, USA). […] Animals were divided into groups consisting of five animals in each. […] The test compounds and standard drug was always prepared in the vehicle 1% gum acacia. […] Food (not water) was removed from the cages during the experimental period. […] Comparing the AUC of test sample or drug treated groups compared to control group determined the percent improvement in OGTT by test sample and standard drugs and termed as antihyperglycaemic activity. Statistical analysis between the groups was done by employing Students t test

[1] = tested on: high fructose high fat fed Syrian golden hamsters; experiment: Antidyslipidemic activity in high fructose high fat fed Syrian golden hamsters; format: in vivo
Method: Male Syrian golden hamsters weighing 100-120 g were divided into groups each containing six animals. Dyslipidemia was produced by feeding the animals with high fructose high fat diet (60% fructose, 13% fat) for 30 to 40 days. Dyslipidemic hamsters were divided into groups based on their Serum lipid profile. The dyslipidemic animals had free access to HFD and water throughout the experimental period. The fine suspension of 14b was fed orally at a dose of 30 mg/kg for 7 days to the animals. Control animals were given drug vehicle only, served as sham treated control. Body weight and diet intake of each animal group were recorded daily to check the effect of the test samples on food intake and body weight of the animals. At the end of the experiment period i.e. on day 8th, the blood of each animal was withdrawn from retro-orbital plexus. After keeping the tubes for 15 min. in cold, Serum was separated. Biochemical analysis of Serum was performed on the same day for triglycerides (TG), total cholesterol (TC) and HDL-cholesterol and LDL-cholesterol contents using Cobas Integra 400 plus analyzer kits. All statistical analysis will be performed with Graph Pad Prism Software. One way ANOVA, all pair wise multiple comparison procedure (Tukey test). Data will be reported as mean±SEM.

CC(=NO)[C@H]1CC[C@H]2[C@@H]3CC=C4C[C@@H](O)CC[C@]4(C)[C@H]3CC[C@]12C [Compound 10., 3β-hydroxy-pregna-5-en-20-one-oxime]
% Antihyperglycemic activity SLM (sucrose loaded rat): 13.9%

C/C(=N\OCCN1CCOCC1)C1=CC[C@H]2[C@@H]3CC=C4C[C@@H](O)CC[C@]4(C)[C@H]3CC[C@]12C [Compound 11c, 3β-Hydroxypregna-5,16-dien-20-one-O-(2-morpholin-4-yl-ethyl)-oxime]
% Antihyperglycemic activity SLM (sucrose loaded rat): 10.2%

C/C(=N\OCC(O)CNC(C)C)C1CCC2C3CC=C4CC(O)CCC4(C)C3CCC12C (stereo not drawn) [Compound 16b, 3β-Hydroxy-pregna-5-en-20-one-O-[2-hydroxy-3-iso-propylamino-Propyl)-oxime]
% Antihyperglycemic activity SLM (sucrose loaded rat): 13.6%

C/C(=N/OCC(O)CN1CCN(c2ccccc2)CC1)[C@H]1CC[C@H]2[C@@H]3CC=C4C[C@@H](O)CC[C@]4(C)[C@H]3CC[C@]12C (stereo partly drawn) [Compound 16c, 3β-Hydroxy-pregna-5-en-20-one-O-[2-hydroxy-3-(4-phenyl-piperazin-1-yl)-propyl]-oxime]
% Antihyperglycemic activity SLM (sucrose loaded rat): 17.8%

CC(C)OC(=O)C(C)(C)Oc1ccc(C(=O)c2ccc(Cl)cc2)cc1 [Fenofibrate, reference compound]
enhancement of lipoprotein lipase ([1]; 30 mg/kg oral): 21.1% | enhancement of serum HDL-cholesterol ([1]; 30 mg/kg oral): 9.8% | lowering of LDL-cholesterol (LDL-C) level ([1]; 30 mg/kg oral): 30.1% | lowering of serum glycerol level ([1]; 30 mg/kg oral): 22.4% | lowering of serum triglycerides level (TG) ([1]; 30 mg/kg oral): 28.9% | Glycerol, change vs HFD control (in parentheses) ([1]; 30 mg/kg p.o., 7 days): (−22.4)* % | HDL-C, change vs HFD control (in parentheses) ([1]; 30 mg/kg p.o., 7 days): (+9.80) % | LDL-C, change vs HFD control (in parentheses) ([1]; 30 mg/kg p.o., 7 days): (−30.1)** % | Lipoprotein lipase, change vs HFD control (in parentheses) ([1]; 30 mg/kg p.o., 7 days): (+21.1)* % | TG, change vs HFD control (in parentheses) ([1]; 30 mg/kg p.o., 7 days): (−28.9)* % | Chol ([1]; 30 mg/kg p.o., 7 days, serum): 277.8 ± 22.3 mg/dL | HDL-C ([1]; 30 mg/kg p.o., 7 days, serum): 156.8 ± 12.8 mg/dL | Lipoprotein lipase ([1]; 30 mg/kg p.o., 7 days, serum): 36.8 ± 3.60 U/L | NEFA ([1]; 30 mg/kg p.o., 7 days, serum): 5.40 ± 0.30 mmol/L | TG ([1]; 30 mg/kg p.o., 7 days, serum): 529.8 ± 30.7 mg/dL
